The structures appear in SMILES notation. Structures can show the parent of a compound that is named as a salt.

The experiment addresses T1, Full length human TNNI3K (hTNNI3K) (Homo sapiens, UniProt Q59H18).
T1 construct: His-MBP-TEV-Full length human TNNI3K (hTNNI3K); His (N); MBP (N); TEV cleavage site (N); made in house; host or cells: baculovirus system (printed 'Baculokinase system')
T1 sequence (Q59H18 1-835): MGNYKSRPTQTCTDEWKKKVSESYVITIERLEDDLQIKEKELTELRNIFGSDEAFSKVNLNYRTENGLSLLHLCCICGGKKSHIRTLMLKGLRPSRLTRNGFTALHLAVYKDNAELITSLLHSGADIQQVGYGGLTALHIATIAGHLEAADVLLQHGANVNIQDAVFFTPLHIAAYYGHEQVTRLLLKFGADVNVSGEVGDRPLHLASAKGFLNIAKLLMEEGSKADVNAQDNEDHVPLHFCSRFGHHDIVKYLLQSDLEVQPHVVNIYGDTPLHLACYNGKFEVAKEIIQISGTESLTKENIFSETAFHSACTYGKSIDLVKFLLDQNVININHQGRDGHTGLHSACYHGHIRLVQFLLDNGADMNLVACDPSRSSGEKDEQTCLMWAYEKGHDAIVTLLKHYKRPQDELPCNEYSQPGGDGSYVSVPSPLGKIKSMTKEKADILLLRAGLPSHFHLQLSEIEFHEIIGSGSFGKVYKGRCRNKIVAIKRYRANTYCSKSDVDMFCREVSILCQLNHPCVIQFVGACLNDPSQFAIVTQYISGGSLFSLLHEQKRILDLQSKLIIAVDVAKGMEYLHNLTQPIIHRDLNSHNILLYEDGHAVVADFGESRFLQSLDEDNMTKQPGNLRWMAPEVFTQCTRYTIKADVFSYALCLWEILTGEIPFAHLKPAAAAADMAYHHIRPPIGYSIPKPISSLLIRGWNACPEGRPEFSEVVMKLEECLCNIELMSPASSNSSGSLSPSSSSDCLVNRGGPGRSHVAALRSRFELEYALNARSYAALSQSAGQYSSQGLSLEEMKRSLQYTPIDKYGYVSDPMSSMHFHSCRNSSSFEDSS
In words: Fluorescent polarization assay of compound inhibition on hTNNI3K ATP binding (Biological Assay Method I). The note with it: displacement of fluorescent ligand from hTNNI3K ATP binding pocket; mean of a minimum of 2 experiments; read-out: pXC50 (the source's name) (converted).
For the molecule `CNS(=O)(=O)c1ccc(N(C)C)c(Nc2ncnc3cc(OCCCN4CCOCC4)ccc23)c1` [Example 73, 4-(dimethylamino)-N-methyl-3-[(7-{[3-(4-morpholinyl)propyl]oxy}-4-quinazolinyl)amino]benzenesulfonamide hydrochloride], the IC50 is 1 to 10 nM.

As for `CNS(=O)(=O)c1ccc(OCC(F)(F)F)c(Nc2ncnc3cc(OCCCN4CCOCC4)ccc23)c1` [Example 74, N-methyl-3-[(7-{[3-(4-morpholinyl)propyl]oxy}-4-quinazolinyl)amino]-4-[(2,2,2-trifluoroethyl)oxy] benzenesulfonamide trifluoroacetate], the IC50 was 10 to 100 nM.

Take `CNS(=O)(=O)c1ccc(OCC(F)(F)F)c(Nc2ncnc3cc(OCCCOC)ccc23)c1` [Example 75, N-methyl-3-[(7-{[3-(methyloxy)propyl]oxy}-4-quinazolinyl)amino]-4-[(2,2,2-trifluoroethyl)oxy]benzenesulfonamide]: the IC50 was 10 to 100 nM.

Consider `CNS(=O)(=O)c1ccc(N(C)C)c(Nc2ncnc3cc(OCCCOC)ccc23)c1` [Example 76, 4-(dimethylamino)-N-methyl-3-[(7-{[3-(methyloxy)propyl]oxy}-4-quinazolinyl)amino] benzenesulfonamide], for which the IC50 is 1 to 10 nM.

As to `CNS(=O)(=O)c1ccc(S(C)(=O)=O)c(Nc2ncnc3cc(OC)cc(OC)c23)c1` [Example 77, 3-{[5,7-bis(methyloxy)-4-quinazolinyl]amino}-N-methyl-4-(methylsulfonyl)benzenesulfonamide trifluoroacetate], the IC50 was 10 to 100 nM.

On to `CCOc1cc2ncnc(Nc3cc(S(=O)(=O)NC)ccc3OCC(F)(F)F)c2cc1OC` [Example 80, 3-(7-ethoxy-6-methoxy-quinazolin-4-ylamino)-N-methyl-4-(2,2,2-trifluoro-ethoxy)-benzenesulfonamide trifluoroacetate], for which the IC50 was 10 to 100 nM.

For the molecule `CNS(=O)(=O)c1ccc(OCC(F)(F)F)c(Nc2ncnc3cc(OCCOC)c(OC)cc23)c1` [Example 81, 3-[6-methoxy-7-(2-methoxy-ethoxy)-quinazolin-4-ylamino]-N-methyl-4-(2,2,2-trifluoro-ethoxy)-benzenesulfonamide trifluoroacetate], the IC50 was 10 to 100 nM.

Regarding `CNS(=O)(=O)c1ccc(N(C)C)c(Nc2ncnc3ccc(N)cc23)c1` [Example 84, 3-((6-aminoquinazolin-4-yl)amino)-4-(dimethylamino)-N-methylbenzenesulfonamide], the IC50 is 10 to 100 nM.

`CNS(=O)(=O)c1ccc(N(C)C)c(Nc2ncnc3cc(N)ccc23)c1` [Example 85, 3-((7-aminoquinazolin-4-yl)amino)-4-(dimethylamino)-N-methylbenzenesulfonamide]: the IC50 is 10 to 100 nM.

For `CNS(=O)(=O)c1ccc(N(C)C)c(Nc2ncnc3ccc(N(C)C)cc23)c1` [Example 86, 4-(dimethylamino)-3-((6-(dimethylamino)quinazolin-4-yl)amino)-N-methylbenzenesulfonamide bis(trifluoroacetate)], the IC50 was 10 to 100 nM.

As to `CNc1ccc2ncnc(Nc3cc(S(=O)(=O)NC)ccc3N(C)C)c2c1` [Example 87, 4-(dimethylamino)-N-methyl-3-((6-(methylamino)quinazolin-4-yl)amino)benzenesulfonamide bis(trifluoroacetate)], the IC50 is 10 to 100 nM.

Turning to `CNc1ccc2c(Nc3cc(S(=O)(=O)NC)ccc3N(C)C)ncnc2c1` [Example 88, 4-(dimethylamino)-N-methyl-3-((7-(methylamino)quinazolin-4-yl)amino) benzenesulfonamide], the IC50 is 10 to 100 nM.
